Assay results reported in a compilation of properties of binary mixtures (doi:10.1016/j.jct.2016.03.014).

Test: xn = mol fraction of the nth substance listed
Settings: 101.3 kPa

CC[n+]1ccn(C)c1.O=S(=O)([O-])C(F)(F)F + CCCCCO
speed of sound [m/s]
Settings	298.15 K	308.15 K	318.15 K	328.15 K
x2 = 0	1435.8	1413.5	–	1369.8
x2 = 0.0507	1431.8	1409.5	–	–
x2 = 0.108	1423.1	1400.8	1378.7	1357.1
x2 = 0.1716	–	1387.5	1365.4	–
x2 = 0.2365	1395.2	–	1350.1	1328.1
x2 = 0.3297	1373.9	1350.8	1328	1305.7
x2 = 0.4357	1348.1	–	1301.1	1278.1
x2 = 0.5702	1317.4	1292.8	1268.5	1244.5
x2 = 0.5941	1312	1287.2	1262.7	1238.5
x2 = 0.7208	1287.9	1261.6	–	–
x2 = 0.8085	–	1249.1	1221.4	1194
x2 = 0.8515	1273.4	1244.7	1216.1	1187.7
x2 = 0.8998	1271.4	1241.4	1211.5	1181.9
x2 = 0.9479	1271.7	1240.2	–	1177.7

CCCCCO + CC[n+]1ccn(C)c1.O=S(=O)([O-])C(F)(F)F
x1 = 1
Settings	speed of sound [m/s]
298.15 K	1274.9
308.15 K	1241.4
328.15 K	1175.3
